Test results as given in PubChem BioAssay (NCI).
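GI50 is the concentration that inhibits growth by half. The concentration for full growth arrest is given as TGI.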

Columns and labels:
Test in all cases: NCI-60 cell line screen, 384-well format
SNB-75 CNS = system: SNB-75 CNS
EKVX NSCLC = system: EKVX NSCLC
SN12C renal = system: SN12C renal
SF-268 CNS = system: SF-268 CNS
RXF 393 renal = system: RXF 393 renal
SW-620 colon = system: SW-620 colon
HS 578T breast = system: HS 578T breast
PC-3 prostate = system: PC-3 prostate
NCI-H226 lung = system: NCI-H226 lung
SK-MEL-5 melanoma = system: SK-MEL-5 melanoma
HT29 colon = system: HT29 colon
A498 renal = system: A498 renal
MALME-3M melanoma = system: MALME-3M melanoma
KM12 colon = system: KM12 colon
BT-549 breast = system: BT-549 breast
T-47D breast = system: T-47D breast
HOP-92 NSCLC = system: HOP-92 NSCLC
SK-OV-3 ovarian = system: SK-OV-3 ovarian
NCI-H322M lung = system: NCI-H322M lung
TK-10 renal = system: TK-10 renal
NCI-H460 NSCLC = system: NCI-H460 NSCLC
MDA-MB-468 breast = system: MDA-MB-468 breast
SF-539 CNS = system: SF-539 CNS
CAKI-1 renal = system: CAKI-1 renal
A549 NSCLC = system: A549 NSCLC
COLO 205 colon = system: COLO 205 colon
DU-145 prostate = system: DU-145 prostate
NCI-H23 lung = system: NCI-H23 lung
MOLT-4 leukemia = system: MOLT-4 leukemia
K-562 leukemia = system: K-562 leukemia
NCI-H522 lung = system: NCI-H522 lung
OVCAR-8 ovarian = system: OVCAR-8 ovarian
UACC-257 melanoma = system: UACC-257 melanoma
MCF7 breast = system: MCF7 breast
SK-MEL-28 melanoma = system: SK-MEL-28 melanoma
U251 glioblastoma = system: U251 glioblastoma
UO-31 renal = system: UO-31 renal
SR leukemia = system: SR leukemia
MDA-MB-231 breast = system: MDA-MB-231 breast
MDA-MB-435 melanoma = system: MDA-MB-435 melanoma
OVCAR-3 ovarian = system: OVCAR-3 ovarian
UACC-62 melanoma = system: UACC-62 melanoma
786-0 renal = system: 786-0 renal
HCT-15 colon = system: HCT-15 colon
HOP-62 NSCLC = system: HOP-62 NSCLC
ACHN renal = system: ACHN renal
HCT-116 colon = system: HCT-116 colon
M14 melanoma = system: M14 melanoma
SK-MEL-2 melanoma = system: SK-MEL-2 melanoma
OVCAR-5 ovarian = system: OVCAR-5 ovarian
HL-60(TB) leukemia = system: HL-60(TB) leukemia
SF-295 CNS = system: SF-295 CNS
OVCAR-4 ovarian = system: OVCAR-4 ovarian
SNB-19 CNS = system: SNB-19 CNS
IGROV1 ovarian = system: IGROV1 ovarian

COc1cc(Nc2ncc(F)c(Nc3ccc4c(n3)N(COP(=O)(O)O)C(=O)C(C)(C)O4)n2)cc(OC)c1OC
GI50 (SNB-75 CNS): 0.505 µM
TGI (SNB-75 CNS): 1.68 µM
GI50 (EKVX NSCLC): 1.09 µM
TGI (EKVX NSCLC): 2.63 µM
GI50 (SN12C renal): 0.724 µM
TGI (SN12C renal): 7.14 µM
GI50 (SF-268 CNS): 1.45 µM
TGI (SF-268 CNS): 2.81 µM
GI50 (RXF 393 renal): 0.241 µM
TGI (RXF 393 renal): 0.887 µM
GI50 (SW-620 colon): 1.88 µM
TGI (SW-620 colon): 6.61 µM
GI50 (HS 578T breast): 1.26 µM
TGI (HS 578T breast): 2.55 µM
GI50 (PC-3 prostate): 2.73 µM
TGI (PC-3 prostate): 12.3 µM
GI50 (NCI-H226 lung): 0.64 µM
TGI (NCI-H226 lung): 2.49 µM
GI50 (SK-MEL-5 melanoma): 2.51 µM
TGI (SK-MEL-5 melanoma): 6.66 µM
GI50 (HT29 colon): 1.41 µM
TGI (HT29 colon): 4.49 µM
GI50 (A498 renal): 1.74 µM
TGI (A498 renal): 3.35 µM
GI50 (MALME-3M melanoma): 2.3 µM
TGI (MALME-3M melanoma): > 100 µM
GI50 (KM12 colon): 2.9 µM
TGI (KM12 colon): 10.9 µM
GI50 (BT-549 breast): 1.3 µM
TGI (BT-549 breast): 2.74 µM
GI50 (T-47D breast): 2.37 µM
TGI (T-47D breast): 9.31 µM
GI50 (HOP-92 NSCLC): 1.26 µM
TGI (HOP-92 NSCLC): 2.6 µM
GI50 (SK-OV-3 ovarian): 0.871 µM
TGI (SK-OV-3 ovarian): 2.23 µM
GI50 (NCI-H322M lung): 1.75 µM
TGI (NCI-H322M lung): 4.85 µM
GI50 (TK-10 renal): 1.38 µM
TGI (TK-10 renal): 3.13 µM
GI50 (NCI-H460 NSCLC): 0.534 µM
TGI (NCI-H460 NSCLC): 11.3 µM
GI50 (MDA-MB-468 breast): 1.7 µM
TGI (MDA-MB-468 breast): 3.34 µM
GI50 (SF-539 CNS): 0.618 µM
TGI (SF-539 CNS): 1.87 µM
GI50 (CAKI-1 renal): 0.974 µM
TGI (CAKI-1 renal): 2.16 µM
GI50 (A549 NSCLC): 1.52 µM
TGI (A549 NSCLC): 3.12 µM
GI50 (COLO 205 colon): 1.64 µM
TGI (COLO 205 colon): 3.67 µM
GI50 (DU-145 prostate): 1.89 µM
TGI (DU-145 prostate): 7.54 µM
GI50 (NCI-H23 lung): 1.38 µM
TGI (NCI-H23 lung): 4.4 µM
GI50 (MOLT-4 leukemia): 1.38 µM
TGI (MOLT-4 leukemia): 3.03 µM
GI50 (K-562 leukemia): 2.63 µM
TGI (K-562 leukemia): 10.8 µM
GI50 (NCI-H522 lung): 0.679 µM
TGI (NCI-H522 lung): 2.2 µM
GI50 (OVCAR-8 ovarian): 1.61 µM
TGI (OVCAR-8 ovarian): 3.01 µM
GI50 (UACC-257 melanoma): 4.06 µM
TGI (UACC-257 melanoma): > 100 µM
GI50 (MCF7 breast): 1.91 µM
TGI (MCF7 breast): > 100 µM
GI50 (SK-MEL-28 melanoma): 2.34 µM
TGI (SK-MEL-28 melanoma): > 100 µM
GI50 (U251 glioblastoma): 1.7 µM
TGI (U251 glioblastoma): 6.87 µM
GI50 (UO-31 renal): 0.654 µM
TGI (UO-31 renal): 2.83 µM
GI50 (SR leukemia): 1.51 µM
TGI (SR leukemia): 2.95 µM
GI50 (MDA-MB-231 breast): 1.98 µM
TGI (MDA-MB-231 breast): 5.78 µM
GI50 (MDA-MB-435 melanoma): 2.35 µM
TGI (MDA-MB-435 melanoma): 25.4 µM
GI50 (OVCAR-3 ovarian): 1.97 µM
TGI (OVCAR-3 ovarian): 11.1 µM
GI50 (UACC-62 melanoma): 1.22 µM
TGI (UACC-62 melanoma): 3.45 µM
GI50 ([…]-0 renal): 1.32 µM
TGI (786-0 renal): 2.99 µM
GI50 (HCT-15 colon): 3.06 µM
TGI (HCT-15 colon): > 100 µM
GI50 (HOP-62 NSCLC): 1.45 µM
TGI (HOP-62 NSCLC): 3.71 µM
GI50 (ACHN renal): 1.25 µM
TGI (ACHN renal): 5.82 µM
GI50 (HCT-116 colon): 1.93 µM
TGI (HCT-116 colon): 6.52 µM
GI50 (M14 melanoma): 2.41 µM
TGI (M14 melanoma): 38.8 µM
GI50 (SK-MEL-2 melanoma): 2.93 µM
TGI (SK-MEL-2 melanoma): 16.5 µM
GI50 (OVCAR-5 ovarian): 1.94 µM
TGI (OVCAR-5 ovarian): 42.8 µM
GI50 (HL-60(TB) leukemia): 1.57 µM
TGI (HL-60(TB) leukemia): 3.03 µM
GI50 (SF-295 CNS): 2.5 µM
TGI (SF-295 CNS): 88.3 µM
GI50 (OVCAR-4 ovarian): 1.45 µM
TGI (OVCAR-4 ovarian): 4.12 µM
GI50 (SNB-19 CNS): 1.92 µM
TGI (SNB-19 CNS): 4.97 µM
GI50 (IGROV1 ovarian): 0.427 µM
TGI (IGROV1 ovarian): 1.6 µM
